Measurements: ChEMBL document CHEMBL4888484, “Replenishing the malaria drug discovery pipeline: Screening and hit evaluation of the MMV Hit Generation Library 1 (HGL1) against asexual blood stage Plasmodium falciparum ,using a nano luciferase reporter read-out” (2022)

Assays:
[1] = test system: Plasmodium falciparum; experiment: Hit confirmation in dose-response curve in NF54 nanoGlo assay, at 72h; format: functional, organism-based, Erythrocyte; design: timepoint 72 hour; conditions: Plasmodium falciparum, NF54, Erythrocyte, 72 h
[2] = test system: Plasmodium falciparum; experiment: Hit confirmation in dose-response curve in NF54 pLDH assay, at 72h; format: functional, organism-based; design: timepoint 72 hour; conditions: NF54, Erythrocyte
[3] = Hit confirmation in dose-response curve in HepG2 cytotoxicity assay, at 72h; format: toxicity, cell-based; design: timepoint 72 hour; conditions: human, HepG2 cells
[4] = test system: Plasmodium falciparum; experiment: Hit confirmation in dose-response curve in Dd2 pLDH assay, at 72h; format: functional, organism-based; design: timepoint 72 hour; conditions: Dd2, Erythrocyte
[5] = test system: Plasmodium falciparum; experiment: Hit confirmation in dose-response curve in NF54 nanoGlo assay, at 12h; format: functional, organism-based, Erythrocyte; design: timepoint 12 hour; conditions: Plasmodium falciparum, NF54, Erythrocyte, 12 h

| SMILES | IC50 [1] | IC50 [2] | IC50 at 72 h [3] | IC50 [4] | IC50 [5] |
| --- | --- | --- | --- | --- | --- |
| O=S(=O)(Nc1cccc2cccnc12)c1cccs1 | 1.82 µM | 5.62 µM | 10.7 µM | 3.24 µM | 4.57 µM |
| COc1ccccc1CN(C(=O)c1ccc(C)cc1)c1ccc(CC(=O)NCCN2CCCCC2)cc1 | 3.16 µM | 0.513 µM | > 10 µM | > 10 µM | > 10 µM |
| Cc1ccccc1C(=O)N(Cc1cccc(F)c1)c1ccc(CC(=O)NCCN2CCCCC2)cc1 | 2.57 µM | 2.75 µM | > 10 µM | 4.68 µM | > 10 µM |
| Cc1nc(C(=O)Nc2[nH]c(=O)ncc2F)c(-c2ccccc2)o1 | 0.00832 µM | 0.0126 µM | > 10 µM | > 10 µM | 9.55 µM |
| Cc1noc(Cl)c1CC(=O)N1CCCC(C)(C)CC1 | 2.29 µM | 5.62 µM | > 10 µM | 4.07 µM | 7.94 µM |
| Cc1[nH]c2ncnc(NC(=O)c3cccc(-n4ccnn4)c3)c2c1C | 8.13 µM | > 10 µM | > 10 µM | > 10 µM | > 10 µM |
| CC(C)c1ccc(Oc2cnn(-c3cccc(Cl)c3)c(=O)c2Nc2cccc(C(=O)NC3CC3)c2)cc1 | 3.02 µM | 10 µM | > 10 µM | 6.61 µM | > 10 µM |
| CCc1cccc(NC(=O)N2CCC3(CC2)C(=O)N(CC(=O)Nc2ccc(F)cc2)CN3c2ccccc2)c1 | 3.02 µM | 10.7 µM | > 10 µM | 6.76 µM | 2.95 µM |
| Cc1oc2ncn(CCN3CCCC3)c(=O)c2c1C(=O)Nc1ccc(C#N)cc1 | 2.63 µM | 10.7 µM | > 10 µM | 6.46 µM | 2.75 µM |
| O=C(N[C@@H](CN1CCCC1)c1ccccc1)N1CCC(c2ccn[nH]2)CC1 | 3.8 µM | 2.24 µM | > 10 µM | 4.9 µM | > 10 µM |
| COc1cccc(CC(=O)N2CCc3nc(N4CCC(C)CC4)nc(Oc4ccccc4OC)c3C2)c1 | 3.63 µM | 10 µM | > 10 µM | 4.9 µM | > 10 µM |
| COc1ccc2[nH]c3c(c2c1)CCN(C(=O)c1ccc(C)c(C)c1)[C@@H]3c1ccccc1OC | 1.74 µM | 3.55 µM | > 10 µM | 2.57 µM | 8.71 µM |
| Cc1ccc(C(=O)N(Cc2cccc(F)c2)c2ccc(CC(=O)N[C@@H](C)c3ccccc3)cc2)cc1 | 1.66 µM | 4.27 µM | > 10 µM | 3.09 µM | > 10 µM |
| Cc1nn(-c2ccccc2)c2nc(Cc3ccccc3)nc(N3CCCN(C(=O)NC4CCCCC4)CC3)c12 | 5.01 µM | > 10 µM | > 10 µM | > 10 µM | 2.75 µM |
| O=C(N1CCCN(c2nc3ccccc3nc2-c2ccccc2)CC1)C(Cl)(Cl)Cl | 2.88 µM | 7.24 µM | > 10 µM | 5.13 µM | 8.91 µM |
| CCCOc1cccc2c(NC3CCN(CCOC)CC3)ccnc12 | 1.78 µM | 2.24 µM | > 10 µM | 1.58 µM | 3.24 µM |
| CCN(CC)C(=O)c1cnc2snc(C)c2c1N1CCC(C(=O)Nc2c(C)cc(C)cc2C)CC1 | 3.24 µM | > 10 µM | > 10 µM | > 10 µM | 5.89 µM |
| O=C(Nc1cc(-c2onc3c2CCCC3)cc(C(F)(F)F)c1)c1cncc(Br)c1 | 1.2 µM | 3.24 µM | > 10 µM | 2.75 µM | 1.26 µM |
| Cc1ccc(NC(=O)Nc2cc(C)ccc2N2CCCN(Cc3ccc(F)cc3)C2=O)cc1 | 5.5 µM | 14.1 µM | > 10 µM | > 10 µM | > 10 µM |
| O=C(c1ccccc1)c1cc(Cl)ccc1NC(=O)[C@H]1CC(=O)N(c2ccc(F)cc2)C1 | 2.24 µM | 3.39 µM | > 10 µM | 4.17 µM | 4.37 µM |
| CC(Oc1ccc2c(c1)C(c1ccccc1)N(Cc1ccccc1F)CC2)C(=O)NC1CC1 (stereo not given) | 2.69 µM | 7.59 µM | > 10 µM | 3.47 µM | > 10 µM |
| O=C(Cc1ccc(N(Cc2cccc(F)c2)C(=O)C2CCCC2)cc1)NCCN1CCCC1 | 3.98 µM | 5.01 µM | > 10 µM | > 10 µM | > 10 µM |
| Cc1ccc(Cn2c(=O)c(C(=O)NCc3ccc4c(c3)OCO4)nn(-c3ccc(C(C)C)cc3)c2=O)cc1 | 2.69 µM | 8.13 µM | > 10 µM | 3.39 µM | > 10 µM |
| O=C(Nc1[nH]c(=O)ncc1F)c1coc(-c2ccccc2)n1 | 0.00589 µM | 0.0112 µM | > 10 µM | > 10 µM | > 10 µM |
